Measurements reported in the supplement of paper PMC10307832.

Legend:
Assay in all cases: relative viability (nuclei count vs DMSO), 5 days (fraction); higher = more cells survive
TPCA-1 + Dasatinib = compound: C1=CC(=CC=C1C2=CC(=C(S2)NC(=O)N)C(=O)N)F [TPCA-1] + Cc1nc(Nc2ncc(C(=O)Nc3c(C)cccc3Cl)s2)cc(N2CCN(CCO)CC2)n1 [Dasatinib] (partner 0.075 µM)
Procedure, shortened: (§1)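 Medians of duplicate plates are given as relative viability. That measure is the nuclei count in treated wells divided by the count in vehicle wells. Counts were taken on 4× images of lung cancer cell lines in 1536-well plates, 5 days after pin-tool dosing the day after seeding with one drug alone or a fixed anchor-drug dose plus five library-drug doses (not always all listed) in √10 steps.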

[1] = compound: C1/C(=C\C2=CC=CS2)/C(=O)/C(=C/C3=CC=CS3)/C1 + O=C(c1cc(Cc2n[nH]c(=O)c3ccccc23)ccc1F)N1CCN(C(=O)C2CC2)CC1 [Olaparib] (partner 8 µM)
Procedure, shortened: as §1

TPCA-1 + AZD7762 = compound: C1=CC(=CC=C1C2=CC(=C(S2)NC(=O)N)C(=O)N)F [TPCA-1] + NC(=O)Nc1cc(-c2cccc(F)c2)sc1C(=O)N[C@H]1CCCNC1 [AZD7762] (partner 0.2 µM)
Procedure, shortened: as §1

TPCA-1 + Pictilisib = compound: C1=CC(=CC=C1C2=CC(=C(S2)NC(=O)N)C(=O)N)F [TPCA-1] + CS(=O)(=O)N1CCN(Cc2cc3nc(-c4cccc5[nH]ncc45)nc(N4CCOCC4)c3s2)CC1 [Pictilisib] (partner 1 µM)
Procedure, shortened: as §1

Row | Cell Line | relative viability (TPCA-1 + Dasatinib; first compound 0.04 µM) | relative viability (TPCA-1 + Dasatinib; first compound 0.1265 µM) | relative viability (TPCA-1 + Dasatinib; first compound 0.4 µM) | relative viability (TPCA-1 + Dasatinib; first compound 1.265 µM) | relative viability (TPCA-1 + Dasatinib; first compound 4 µM) | relative viability ([1]; first compound 0.2 µM) | relative viability ([1]; first compound 0.6325 µM) | relative viability ([1]; first compound 2 µM) | relative viability ([1]; first compound 6.325 µM) | relative viability ([1]; first compound 20 µM) | relative viability (TPCA-1 + AZD7762; first compound 0.04 µM) | relative viability (TPCA-1 + AZD7762; first compound 0.1265 µM) | relative viability (TPCA-1 + AZD7762; first compound 0.4 µM) | relative viability (TPCA-1 + AZD7762; first compound 1.265 µM) | relative viability (TPCA-1 + AZD7762; first compound 4 µM) | relative viability (TPCA-1 + Pictilisib; first compound 0.04 µM) | relative viability (TPCA-1 + Pictilisib; first compound 0.1265 µM) | relative viability (TPCA-1 + Pictilisib; first compound 0.4 µM) | relative viability (TPCA-1 + Pictilisib; first compound 1.265 µM) | relative viability (TPCA-1 + Pictilisib; first compound 4 µM)
1 | 201T | 0.577 | 0.601 | 0.569 | 0.576 | 0.556 | 0.866 | 0.856 | 0.858 | 0.775 | 0.84 | 0.704 | 0.63 | 0.627 | 0.582 | 0.558 | 0.733 | 0.66 | 0.687 | 0.663 | 0.632
2 | A549 | – | – | – | – | – | 0.352 | 0.283 | 0.642 | 0.286 | 0.354 | – | – | – | – | – | 0.676 | 0.517 | – | 0.378 | 0.242
3 | A-427 | 0.752 | 0.621 | 0.795 | 0.745 | 0.454 | 0.802 | 0.797 | 0.762 | 0.467 | 0.786 | 0.881 | 0.801 | 0.89 | 0.811 | 0.624 | 0.756 | 0.591 | 0.687 | 0.626 | 0.164
4 | ABC-1 | 0.485 | 0.493 | 0.614 | 0.495 | 0.381 | 1.02 | 0.984 | 1.11 | 0.842 | 0.779 | – | 0.606 | 0.935 | 0.836 | 0.945 | 0.82 | 0.479 | 0.672 | 0.429 | 0.524
5 | BEN | 0.294 | 0.283 | 0.335 | 0.391 | 0.267 | 1.15 | 1.03 | 1.19 | 1.04 | 0.944 | 0.677 | 0.665 | 0.9 | 1.08 | 0.505 | 0.663 | 0.449 | 0.516 | 0.789 | 0.441
6 | CAL-12T | 0.361 | 0.486 | 0.571 | 0.304 | 0.154 | 0.691 | 0.749 | 0.742 | 0.648 | 0.733 | 0.702 | 0.583 | 0.667 | 0.565 | 0.555 | 0.283 | 0.438 | 0.507 | 0.224 | 0.162
7 | COR-L23 | 0.532 | 0.434 | 0.54 | 0.422 | 0.42 | 0.408 | 0.367 | 0.323 | 0.388 | 0.325 | – | – | – | – | – | 0.964 | 0.671 | 0.829 | 0.716 | 0.438
8 | COR-L 105 | 0.307 | 0.361 | 0.345 | 0.225 | 0.204 | 0.753 | 0.757 | 0.646 | 0.434 | 0.618 | – | – | – | – | – | 0.475 | 0.364 | 0.463 | 0.306 | 0.248
9 | Calu-6 | – | – | – | – | – | 0.548 | 0.595 | 0.55 | 0.586 | 0.524 | – | – | – | – | – | 0.954 | 0.841 | 0.946 | 0.785 | 0.469
10 | ChaGo-K-1 | 0.754 | 0.594 | 0.705 | 0.561 | 0.218 | 0.407 | 0.413 | 0.381 | 0.233 | 0.169 | 0.869 | 0.883 | 0.904 | 0.8 | 0.522 | 0.624 | 0.704 | 0.805 | 0.748 | 0.334
11 | EBC-1 | – | – | – | – | – | 0.687 | 0.754 | 0.652 | 0.593 | 0.69 | – | – | – | – | – | 0.462 | 0.421 | 0.466 | 0.474 | 0.362
12 | EKVX | 0.535 | 0.542 | 0.529 | 0.487 | 0.627 | 0.884 | 0.734 | 0.951 | – | 0.821 | 0.739 | – | 0.813 | 0.669 | 0.677 | 0.405 | 0.343 | 0.512 | 0.374 | 0.43
13 | EMC-BAC-2 | 0.364 | 0.352 | 0.368 | 0.46 | 0.343 | 0.51 | 0.495 | 0.484 | 0.424 | 0.514 | 1.15 | 1.09 | 1.27 | 1.03 | 0.72 | 0.59 | 0.475 | 0.55 | 0.318 | 0.406
14 | EPLC-272H | 0.449 | 0.33 | 0.365 | 0.421 | 0.301 | 0.858 | 0.907 | 0.627 | 0.506 | 0.579 | 0.368 | 0.26 | 0.314 | 0.26 | 0.276 | 0.381 | 0.285 | 0.341 | 0.38 | 0.32
15 | H3255 | 0.421 | 0.352 | 0.431 | 0.305 | 0.301 | 0.635 | 0.59 | 0.635 | 0.509 | 0.535 | 0.925 | 0.835 | 0.863 | 0.688 | 0.694 | 0.461 | 0.404 | 0.509 | 0.399 | 0.333
